Laboratory results taken from patent publication US4220587A, “Amino acid derivatives of 6-(2-amino-2-arylacetamido)penicillanic acids” (Mitsubishi Chemical Industries, Limited, priority 1975, dated 1980).
In brackets after ≈: the same amount, converted by molar mass. Like-named read-outs stand apart in the source and are kept apart here.

Experiments:
Format in all cases: cell-based
[1] = test system: Proteus vulgaris (IFO 3045); experiment: MIC, agar dilution, Proteus vulgaris; conditions: read-out: Minimum Inhibitory Concentration (MIC)
Protocol: (§1) The compounds of this invention were tested for antibacterial activity according to the following procedure. Nutrient broth and nutrient agar were prepared according to the conventional procedure. […] was used as a vehicle. The stock solution was prepared at 100 μg/ml of the test material in the vehicle. Two-fold dilutions were made with the vehicle and then the diluted stock solution was added to a petri dish and solidified by chilling. Test organisms were grown in the nutrient broth for 20 hours at 37° C. The hardened surface was inoculated with a loopful of the test organism solution containing 1×10^6 cells per milliliter and incubated for 20 hours at 37° C. At the end of this period, growth of the organism was observed. […] The following Table 1 summarizes the activity of representative compounds as active antibacterial agents, and compares them with the prior art compounds and the reference drug Sulbenicillin.

[2] = test system: Pseudomonas aeruginosa; experiment: MIC, agar dilution, Pseudomonas aeruginosa (strain not given); conditions: ATCC 15691 / ATCC 15692, 20 h, read-out: Minimum Inhibitory Concentration (MIC)
Protocol: as §1

[3] = test system: Proteus mirabilis (IFO 3849); experiment: MIC, agar dilution, Proteus mirabilis; conditions: read-out: Minimum Inhibitory Concentration (MIC)
Protocol: as §1

[4] = test system: Staph. aureus (FDA 209P); experiment: MIC, agar dilution, Staph. aureus; conditions: Staphylococcus aureus, FDA209P, read-out: Minimum Inhibitory Concentration (MIC)
Protocol: as §1

[5] = test system: E. coli (NIHJ); experiment: MIC, agar dilution, E. coli; conditions: Escherichia coli, read-out: Minimum Inhibitory Concentration (MIC)
Protocol: as §1

[6] = test system: Salmonella typhimurium (TA 100); experiment: MIC, agar dilution, Salmonella typhimurium; conditions: Salmonella enterica, read-out: Minimum Inhibitory Concentration (MIC)
Protocol: as §1

[7] = test system: Proteus morgani (IFO 3848); experiment: MIC, agar dilution, Proteus morgani; conditions: Morganella morganii, read-out: Minimum Inhibitory Concentration (MIC)
Protocol: as §1

[8] = test system: Pseudomonas aeruginosa (ATCC 15692); experiment: MIC, agar dilution, Pseudomonas aeruginosa ATCC 15692; conditions: read-out: Minimum Inhibitory Concentration (MIC)
Protocol: as §1

[9] = test system: Pseudomonas aeruginosa M-11; experiment: MIC, agar dilution, Pseudomonas aeruginosa M-11; conditions: 20 h, read-out: Minimum Inhibitory Concentration (MIC)
Protocol: as §1
^*1 streptomycin resistant strain derived from Pseudomonas aeruginosa

[10] = test system: Pseudomonas aeruginosa M-12; experiment: MIC, agar dilution, Pseudomonas aeruginosa M-12; conditions: ATCC15692, 20 h, read-out: Minimum Inhibitory Concentration (MIC)
Protocol: as §1
^*2 chloramphenicol resistant strain derived from Pseudomonas

[11] = test system: Pseudomonas aeruginosa M-16; experiment: MIC, agar dilution, Pseudomonas aeruginosa M-16; conditions: M16, 20 h, read-out: Minimum Inhibitory Concentration (MIC)
Protocol: as §1
^*3 streptomycin, chloramphenicol and mercury resistant strain derive

[12] = test system: Pseudomonas aeruginosa (ATCC 15691); experiment: MIC, agar dilution, Pseudomonas aeruginosa ATCC 15691; conditions: read-out: Minimum Inhibitory Concentration (MIC)
Protocol: as §1

[13] = test system: Klebsiella pneumoniae (ATCC 25955); experiment: MIC, agar dilution, Klebsiella pneumoniae; conditions: read-out: Minimum Inhibitory Concentration (MIC)
Protocol: as §1

[14] = Proteus vulgaris, IFO3045, 20 h
[15] = Proteus mirabilis, IFO3849, 20 h
[16] = Salmonella typhimurium TA 100, ampicillin resistant strain, nutrient agar, 20 hours at 37° C.
[17] = Klebsiella pneumoniae, ATCC25955, 20 h

SMILES | MIC [1, 14] [µg/mL] | MIC [2] [µg/mL] | MIC [3, 15] [µg/mL] | MIC ([4]; 20 h) [µg/mL] | MIC ([5]; 20 h) [µg/mL] | MIC ([7]; IFO3848, 20 h) [µg/mL] | further results
Cc1ccc(S(=O)(=O)N(C)C(C)C(=O)N[C@@H](C(=O)N[C@@H]2C(=O)N3[C@@H]2SC(C)(C)[C@@H]3C(=O)O)c2ccccc2)cc1 (some centres unmarked) [Compound 19] | 12.5 (≈ 21.2 µM) | 37 (≈ 62.8 µM) | 12.5 (≈ 21.2 µM) | 0.15 (≈ 0.255 µM) | 25 (≈ 42.5 µM) | 12.5 (≈ 21.2 µM) | MIC ([6]; TYPHIMURIUM, 20 h): 9 µg/mL (≈ 15.3 µM)
CN(C(=O)OCc1ccccc1)[C@@H](C(=O)N[C@@H](C(=O)N[C@@H]1C(=O)N2[C@@H]1SC(C)(C)[C@@H]2C(=O)O)c1ccccc1)c1ccccc1 [Compound 25] | 25 (≈ 39.6 µM) |  | 25 (≈ 39.6 µM) | 3.62 (≈ 5.74 µM) | 50 (≈ 79.3 µM) | 25 (≈ 39.6 µM) | MIC [6, 16]: 12.5 µg/mL (≈ 19.8 µM)
Cc1ccc(S(=O)(=O)N(C)[C@H](C)C(=O)N[C@@H](C(=O)N[C@@H]2C(=O)N3[C@@H]2SC(C)(C)[C@@H]3C(=O)O)c2ccccc2)cc1 [Compound 17] | 12.5 (≈ 21.2 µM) | 25 (≈ 42.5 µM) | 12.5 (≈ 21.2 µM) | 0.15 (≈ 0.255 µM) | 25 (≈ 42.5 µM) | 9 (≈ 15.3 µM) | MIC [6, 16]: 12.5 µg/mL (≈ 21.2 µM)
CC1(C)S[C@@H]2[C@H](NC(=O)[C@H](NC(=O)[C@H]3CCCN3)c3ccc(O)cc3)C(=O)N2[C@H]1C(=O)O [Compound 3, 6-[D-2-(D-prolylamino)-2-(4-hydroxyphenyl)acetamido]penicillanic acid monohydrate] | 6.2 |  | 2.2 | 0.9 | 6.2 | 3.1 | MIC ([8]; ATCC15692, 20 h): 6.2 µg/mL
CC1(C)S[C@@H]2[C@H](NC(=O)[C@H](NC(=O)[C@H]3Cc4ccccc4CN3)c3ccccc3)C(=O)N2[C@H]1C(=O)O [Compound 15] | 25 (≈ 49.2 µM) |  | 25 (≈ 49.2 µM) | 0.3 (≈ 0.59 µM) | 25 (≈ 49.2 µM) | 25 (≈ 49.2 µM) | MIC [9]: 25 µg/mL (≈ 49.2 µM); MIC [10]: 25 µg/mL (≈ 49.2 µM); MIC [11]: 25 µg/mL (≈ 49.2 µM); MIC ([12]; ATCC15691, 20 h): 50 µg/mL (≈ 98.3 µM); MIC [13, 17]: 25 µg/mL (≈ 49.2 µM)
CC1(C)S[C@@H]2[C@H](NC(=O)[C@H](NC(=O)[C@H]3CCN3)c3ccccc3)C(=O)N2[C@H]1C(=O)O [Compound 28] | 6.2 (≈ 14.3 µM) | 25 (≈ 57.8 µM) | 6.2 (≈ 14.3 µM) | 3.75 (≈ 8.67 µM) | 50 (≈ 116 µM) | 12.5 (≈ 28.9 µM) | 
CC1(C)S[C@@H]2[C@H](NC(=O)[C@H](NC(=O)[C@@H]3CCCN3)c3ccc(O)cc3)C(=O)N2[C@H]1C(=O)O [Compound 4] | 12.5 (≈ 27 µM) |  | 9 (≈ 19.5 µM) | 1.25 (≈ 2.7 µM) | 25 (≈ 54.1 µM) | 9 (≈ 19.5 µM) | MIC ([8]; ATCC15692, P. aeruginosa ATCC 15692, nutrient agar, 20 hours at 37° C.): 50 µg/mL (≈ 108 µM)
CC(C)C[C@H](C(=O)N[C@@H](C(=O)N[C@@H]1C(=O)N2[C@@H]1SC(C)(C)[C@@H]2C(=O)O)c1ccccc1)N(C)C(=O)OCc1ccccc1 [Compound 24] | 100 (≈ 164 µM) | 100 (≈ 164 µM) | 100 (≈ 164 µM) | 0.62 (≈ 1.02 µM) | 50 (≈ 81.9 µM) | 100 (≈ 164 µM) | MIC ([6]; TYPHIMURIUM, 20 h): < 6.25 µg/mL
CC1(C)S[C@@H]2[C@H](NC(=O)[C@H](NC(=O)[C@H]3CCCN3)c3ccccc3)C(=O)N2[C@H]1C(=O)O [Compound 1] | 1.5 (≈ 3.36 µM) |  | 1.5 (≈ 3.36 µM) | 0.45 (≈ 1.01 µM) | 6.2 (≈ 13.9 µM) | 3.1 (≈ 6.94 µM) | MIC [10]: 3.1 µg/mL (≈ 6.94 µM); MIC [11]: 3.1 µg/mL (≈ 6.94 µM); MIC ([12]; ATCC15691, 20 h): 12.5 µg/mL (≈ 28 µM); MIC [13, 17]: 50 µg/mL (≈ 112 µM)
CC1(C)S[C@@H]2[C@H](NC(=O)C(c3ccccc3)S(=O)(=O)O)C(=O)N2[C@H]1C(=O)O (some centres unmarked) [sulpenicillin, reference compound] |  |  |  |  |  |  | MIC ([1]; IFO3045, Proteus vulgaris IFO 3045, nutrient agar, 20 hours at 37° C.): < 3.1 µg/mL; MIC [9]: 25 µg/mL (≈ 60.3 µM); MIC [10]: 25 µg/mL (≈ 60.3 µM); MIC [11]: 25 µg/mL (≈ 60.3 µM); MIC ([12]; ATCC15691, P. aeruginosa ATCC 15691, nutrient agar, 20 hours at 37° C.): 50 µg/mL (≈ 121 µM); MIC ([3]; IFO3849, Proteus mirabilis IFO 3849, nutrient agar, 20 hours at 37° C.): < 3.1 µg/mL; MIC ([4]; Staph. aureus FDA 209P, nutrient agar, 20 hours at 37° C.): 3.25 µg/mL (≈ 7.84 µM); MIC ([13]; ATCC25955, Klebsiella pneumoniae ATCC 25955, nutrient agar, 20 hours at 37° C.): > 100 µg/mL; MIC ([5]; E. coli NIHJ, nutrient agar, 20 hours at 37° C.): 1.25 µg/mL (≈ 3.02 µM); MIC ([7]; IFO3848, Proteus morgani IFO 3848, nutrient agar, 20 hours at 37° C.): < 3.1 µg/mL
CC1(C)S[C@@H]2[C@H](NC(=O)[C@H](NC(=O)[C@H]3CCCCN3)c3ccc(O)cc3)C(=O)N2[C@H]1C(=O)O [Compound 7] | < 6.2 |  | 9 (≈ 18.9 µM) | 1.25 (≈ 2.62 µM) | 25 (≈ 52.5 µM) | < 6.2 | MIC [13, 17]: 9 µg/mL (≈ 18.9 µM)
